For 2 compounds, Activity results are on record in ChEMBL document CHEMBL1149283, “Design, synthesis and evaluation of a PLG tripeptidomimetic based on a pyridine scaffold” (J Med Chem, 2004).

The structures appear in SMILES notation. Where a SMILES comes first, the peptide text is derived from it.

Holding throughout (format): functional, cell-based
Holding throughout (details): NIH3T3

Assay [1] addresses D(2) dopamine receptor (Homo sapiens) (UniProt P14416). The assay can be described thus: Activity at human dopamine D2 receptor in NIH/3T3 cells assessed as enhancement of NPA-stimulated beta-galactosidase activity at 10 nM after 5 days by R-SAT assay.
For assay [2] the target is unchanged. The assay can be described thus: Activity at human dopamine D2 receptor in NIH/3T3 cells assessed as enhancement of NPA-stimulated beta-galactosidase activity at 50 nM after 5 days by R-SAT assay.
Assay [3] shares this target. The assay can be described thus: Activity at human dopamine D2 receptor in NIH/3T3 cells assessed as enhancement of NPA-stimulated beta-galactosidase activity at 100 nM after 5 days by R-SAT assay.

Sequence of D(2) dopamine receptor (Homo sapiens) (P14416 whole entry): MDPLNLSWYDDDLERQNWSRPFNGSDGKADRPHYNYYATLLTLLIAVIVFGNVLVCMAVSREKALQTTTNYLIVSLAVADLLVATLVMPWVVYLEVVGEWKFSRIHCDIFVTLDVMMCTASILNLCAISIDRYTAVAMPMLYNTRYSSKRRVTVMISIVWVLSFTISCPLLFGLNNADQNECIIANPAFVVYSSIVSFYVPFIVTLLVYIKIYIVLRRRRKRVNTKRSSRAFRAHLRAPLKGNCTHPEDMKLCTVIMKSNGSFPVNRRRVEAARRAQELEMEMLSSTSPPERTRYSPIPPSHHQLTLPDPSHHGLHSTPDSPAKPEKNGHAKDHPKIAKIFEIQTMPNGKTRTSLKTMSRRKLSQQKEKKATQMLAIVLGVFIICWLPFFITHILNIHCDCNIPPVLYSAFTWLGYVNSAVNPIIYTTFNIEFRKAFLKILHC

In the case of `CC(C)Cc1c(C(=O)[C@@H]2CCCN2)ccnc1OCC(N)=O`, the results for the Activity in assay [1], in assay [2] and in assay [3] were 146%, 135% and 117%, respectively.

Take `CC(C)C[C@H](NC(=O)[C@@H]1CCCN1)C(=O)NCC(N)=O` (H-Pro-Leu-Gly-NH2): the values for the Activity in assay [1], in assay [2] and in assay [3] were 115%, 104% and 98%, respectively.
